# Test results reported in patent US10526646B2, “Chromogenic peroxidase substrates” (Dako Denmark A/S, priority 2015, dated 2020).
# Experiments:
# [1] = UV-VIS absorbance maxima of chromogenic conjugates and mixtures; type: physicochemical
# Procedure: “Spectrally narrow” refers to a chromogen having less that 50 nm broadness at its maximum absorbance at half peak height by UV-VIS spectroscopy, measured in +99% water at pH, 6-8 in 10 μM concentration. A “magenta chromogen” is a spectrally narrow chromogen with peak absorbance between 525 and 530 nm, measured in +99% water at pH, 6.0-8.0 in 10 μM concentration. A “greenish-yellow chromogen” is a chromogen with peak absorbance below 475 nm and less than 10% absorbance at 530 nm or above relative to the peak absorbance, measured in +99% water at pH, 6.0-8.0 in 10 μM concentration. A “yellow chromogen” is a chromogen with peak absorbance below 505 nm and less than 10% absorbance at 530 nm or above relative to the peak absorbance, measured in +99% water at pH, 6.0-8.0 in 10 μM concentration. A “cyan chromogen” is a chromogen having maximal absorbance above 615 nm and less than 10% relative absorbance at any wavelength between 530 and 400 nm relative to the peak absorbance, measured in +99% water at pH, 6.0-8.0 m 10 μM concentration. An “orange chromogen” is a “spectrally narrow” chromogen that has maximum absorbance between 495 and 520 nm, measured in +99% water at pH, 6-8 in 10 μM concentration. A “dichroic chromogen” is a chromogen that has at least two absorbance maxima, separated by a local minimum at least 50 nm wide and one further global minimum between 390 and 700 nm measured in water between pH 6 and 8.
# HRP [2] = biological target: T1, HRP (Armoracia rusticana, UniProt P00433); assay: IHC staining of FFPE human tissues and Her2 control cell lines, Envision+ Dual link HRP visualization, DAB as reference; set-up: species or system horse radish; settings: for colour of IHC stain / stain intensity and crispness compared with DAB: tested in 0.4 to 1 mM; for stain intensity and crispness compared with DAB: low and medium expression targets
# T1 construct: purchased Dako K4061
# T1 sequence (P00433 31-338): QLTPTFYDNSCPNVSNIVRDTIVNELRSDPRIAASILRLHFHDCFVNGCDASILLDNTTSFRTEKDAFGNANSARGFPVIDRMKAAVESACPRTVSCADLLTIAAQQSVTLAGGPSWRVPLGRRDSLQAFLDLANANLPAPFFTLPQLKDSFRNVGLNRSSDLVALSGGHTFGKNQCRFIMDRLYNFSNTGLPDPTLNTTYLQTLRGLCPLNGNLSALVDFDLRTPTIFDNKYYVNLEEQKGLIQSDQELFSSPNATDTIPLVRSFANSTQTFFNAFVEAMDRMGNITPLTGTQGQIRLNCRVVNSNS
# HRP [3] = biological target: T1, HRP; assay: Tissue staining with mixtures of chromogens in chromogen buffer; set-up: species or system horse radish
# HRP [4] = biological target: T1, HRP; assay: Fast CISH on human tissue slides, antiFITC-HRP; set-up: species or system horse radish; settings: 1 mM in substrate buffer pH 6.8, 0.003% hydrogen peroxide, 5 min
# [5] = Solubility in substrate buffer as function of percentage of NMP; type: physicochemical
# Procedure: Only Compound 6 having a piperazine amide stands out by absorbing at 536 nm, around 5 nm above the esters comprising Compounds 2, 13, 14 and 15 all with abs max within 531-533 nm. […] Addition of NMP to the buffer in all cases increased chromogen solubility. See result table below of the solubility of 2, 13 and 15 as function of percentage of NMP as organic co solvent, 0% representing neat aqueous buffer 50 mM imidazole: HCl, pH 6.8, 3% and 10% said percent.
# HRP [6] = biological target: T1, HRP; assay: Triple immunohistochemical staining (Ki67, CD20, Her2) on Dako Autostainer; set-up: species or system horse radish; settings: 0.5 mM conjugate, 50 mM imidazole:HCl pH 6.8, 0.003% hydrogen peroxide, 2.5% NMP, 5 min
# Procedure: The exemplary triple staining method employed DAB in combination with Compounds 2 and 8, on a Dako Autostainer at room temperature. The steps of the method included: • 1. Blocking of endogenous peroxidase with peroxidase block (Dako S2023), 5 min. • 2. antiKi67 RTU antibody (Dako IR626), 20 mm • 3. Envision+dual Link HRP (Dako K4061), 20 min • 4. DAB (Dako K3468) 5 min. • 5. HRP quenching with peroxidase block (Dako S2023) with addition of 5 mg/mL alphacyano cinnamic acid, 5 min. • 6. antiCD20cy RTU antibody (Dako IR604), 20 min • 7. Envision+dual Link HRP (Dako K4061), 20 min • 8. 0.5 mM compound 2 in 50 mM imidazole: HCl pH 6.8, 0.003% hydrogen peroxide and 2.5% NMP, 5 min. • 9. HRP quenching with peroxidase block (Dako S2023) with addition of 5 mg/mL alphacyano cinnamic acid, 5 min. • 10. antiHer2 (Dako vial ST301 from HercepTest kit SK001) 20 min. • 11. Envision+dual Link HRP (Dako K4061), 20 min • 12. 0.5 mM compound 8 in 50 mM imidazole: HCl pH 6.8, 0.003% hydrogen peroxide and 2.5% NMP, 5 min. • 13. Counter stain with haematoxylin (Dako S3301)
Absp nm (max) [1],colour of IHC stain (HRP [2]),"solubility ([5]; imidazole:HCl buffer (substrate buffer) with 3% NMP, aqueous buffer, 3% NMP in 50 mM imidazole:HCl pH 6.8)","solubility ([5]; imidazole:HCl buffer (substrate buffer) with 10% NMP, aqueous with cosolvent or surfactant or cyclodextrin, 10% NMP in 50 mM imidazole:HCl pH 6.8)","solubility ([5]; imidazole:HCl buffer (substrate buffer), 0% NMP, neat aqueous buffer 50 mM imidazole:HCl pH 6.8)",stain produced in triple staining (HRP [6]),Compound,mutagenicity (Mutagenicity test),IHC staining performance of Rhodamine 6G derivatives with different 4-hydroxy cinnamic acid derivatives (HRP [2]; peroxidase substrate moiety varied),stain intensity and crispness compared with DAB (HRP [2]),"staining in the high expression range (HRP [2]; very high expression targets, trained observers)","intensity compared with DAB (HRP [3]; 0.6 mM in 15 mM imidazole pH 6.8, 4% NMP, 0.1% NP40-Nonidet, 0.01% Benzalkonium chloride, 0.03% hydrogen peroxide)",colour of stain of compound alone (HRP [3]; alone),CISH signals (HRP [4])
531 nm,red stains,1200 µM,3600 µM,1000 µM,red Her2 membrane stain,"CC/N=c1\cc2oc3cc(NCC)c(C)cc3c(-c3ccccc3C(=O)OCC(=O)NCCOCCOCCNC(=O)/C=C/c3ccc(O)cc3)c-2cc1C [Compound 2, Rhodamine 6G-L12-Cou]",does not have significant mutagenicity,both strong and crisp stains with no background,fully matched DAB in intensity and crispness,performed better and more dynamically in the high expression range,matching DAB in intensity in the low range,changed from bright magenta at low intensities toward more full reds at higher intensities,large and distinct dots in both Tonsil tissues
567 nm,slightly bluish purple stains,–,–,–,purple CD20 membrane stain,"CCN(CC)c1ccc2c(-c3ccccc3C(=O)N3CCN(CC(=O)NCCOCCOCCNC(=O)/C=C/c4ccc(O)cc4)CC3)c3ccc(=[N+](CC)CC)cc-3oc2c1 [Compound 8, RhodamineB-Pip-L12-Cou]",–,–,more than matched DAB in intensity and crispness,–,–,–,–
